{
  "source": "paper PMC9376891",
  "about": "(Nature Communications, 2022)",
  "target": "Rae1_31-368-Nup98_157-213 heterodimer (Rae1-Nup98 complex) (Homo sapiens, UniProt P52948+P78406)",
  "sequence (P78406 31-368 limits assumed)": "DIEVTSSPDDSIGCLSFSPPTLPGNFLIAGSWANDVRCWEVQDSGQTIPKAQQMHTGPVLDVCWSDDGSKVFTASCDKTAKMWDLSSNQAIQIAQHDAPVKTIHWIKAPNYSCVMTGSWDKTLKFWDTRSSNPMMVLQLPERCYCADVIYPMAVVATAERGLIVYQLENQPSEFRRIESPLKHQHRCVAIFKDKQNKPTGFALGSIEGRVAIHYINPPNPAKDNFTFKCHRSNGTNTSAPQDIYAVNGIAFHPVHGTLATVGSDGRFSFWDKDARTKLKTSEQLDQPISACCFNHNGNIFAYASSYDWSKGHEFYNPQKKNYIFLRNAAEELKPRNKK",
  "sequence (P52948 157-213 partner limits assumed)": "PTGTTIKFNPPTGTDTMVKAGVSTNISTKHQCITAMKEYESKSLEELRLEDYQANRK",
  "experiment": "biochemical",
  "format": "binding",
  "data": [
    {"compound": "CC[C@H](C)[C@H](NC(=O)[C@H](CCC(=O)O)NC(=O)[C@H](CCSC)NC(=O)[C@@H]1CCCN1C(=O)[C@H](CCC(N)=O)NC(=O)[C@H](CCC(=O)O)NC(=O)[C@H](CCC(=O)O)NC(=O)[C@H](CC(=O)O)NC(=O)[C@H](CC(C)C)NC(=O)[C@H](CCC(N)=O)NC(=O)[C@H](CO)NC(=O)[C@@H](N)Cc1ccc(O)cc1)C(=O)N[C@@H](CC(=O)O)C(=O)N[C@@H](Cc1ccc(O)cc1)C(=O)N1CCC[C@H]1C(=O)O", "note": "[SARS-CoV-2 ORF6 C3 + YP]", "values": [
      {"measurement": "Kd", "result": 200, "unit": "nM"}
    ]}
  ]
}
